The record followed here is patent publication EP4043444A1, “SUBSTITUTED ISOXAZOLINE DERIVATIVES” (priority 2021, dated 2022).

Common to all, as to type: in vivo
For data set [1], the system named is Boll weevil (Anthonomus grandis). Put plainly: Boll weevil control, 96-well microtiter plates with insect diet and eggs. The following applies: for mortality at 2500 ppm: Anthonomus grandis, 120 h, read-out: mortality (Egg and larval mortality). On the procedure:
For evaluating control of boll weevil, the test unit consisted of 96-well-microtiter plates containing an insect diet and 5-10 A. grandis eggs.
The compounds were formulated using a solution containing 75% v/v water and 25% v/v DMSO. Different concentrations of formulated compounds were sprayed onto the insect diet at 5µl, using a custom-built micro atomizer, at two replications.
After application, microtiter plates were incubated at about 25 + 1°C and about 75 + 5 % relative humidity for 5 days. Egg and larval mortality were then visually assessed.

In data set [2] the test system is Green Peach Aphid (Myzus persicae) (mixed life stages). Put plainly: Green Peach Aphid control through systemic means, artificial diet under artificial membrane. The following applies: for mortality at 2500 ppm: Myzus persicae, 72 h, read-out: mortality (Aphid mortality). The source says:
For evaluating control of Green Peach Aphid through systemic means the test unit consisted of 96-well-microtiter plates containing liquid artificial diet under an artificial membrane. The compounds were formulated using a solution containing 75% v/v water and 25% v/v DMSO. Different concentrations of formulated compounds were pipetted into the aphid diet, using a custom-built pipette, at two replications. After application, 5 - 8 adult aphids were placed on the artificial membrane inside the microtiter plate wells. The aphids were then allowed to suck on the treated aphid diet and incubated at about 23 + 1°C and about 50 + 5 % relative humidity for 3 days. Aphid mortality and fecundity was then visually assessed.

Data set [3] has as its system Yellow Fever Mosquito (Aedes aegypti). Put plainly: whole plant or invertebrate. The following applies: 48 h, 2 days, in comparison with untreated controls, read-out: mortality (Larval mortality). The protocol: For evaluating control of Yellow Fever Mosquito the test unit consisted of 96-well-microtiter plates containing 200µl of tap water per well and 5-15 freshly hatched A. aegypti larvae. The active compounds were formulated using a solution containing 75% (v/v) water and 25% (v/v) DMSO. Different concentrations of formulated compounds or mixtures were sprayed onto the insect diet at 2.5µl, using a custom-built micro atomizer, at two replications.
After application, microtiter plates were incubated at 28 + 1°C, 80 + 5 % RH for 2 days. Larval mortality was then visually assessed.

Data set [4] has as its system Tobacco Budworm (Heliothis virescens). Put plainly: Tobacco Budworm control, 96-well microtiter plates with insect diet and eggs. The following applies: for mortality at 2500 ppm: Heliothis virescens, 120 h, read-out: mortality (Egg and larval mortality). The protocol:
For evaluating control of Tobacco Budworm, the test unit consisted of 96-well-microtiter plates containing an insect diet and 15-25 H. virescens eggs. The compounds were formulated using a solution containing 75% v/v water and 25% v/v DMSO. Different concentrations of formulated compounds were sprayed onto the insect diet at 10µl, using a custom-built micro atomizer, at two replications. After application, microtiter plates were incubated at about 28 + 1°C and about 80 + 5 % relative humidity for 5 days. Egg and larval mortality was then visually assessed.

The mark [5] stands for this setting: 2500ppm, sprayed onto insect diet, 5 days, in comparison with untreated controls.

Like-named read-outs stand apart in the source and are kept apart here. Some results are limits rather than exact numbers.

For `O=C(N[C@@H]1CON(CC(F)(F)F)C1=O)c1cc(NC2=NOC(c3cc(Cl)c(F)c(Cl)c3)(C(F)(F)F)C2)ccc1Cl` (stereo partly drawn) [I-119, 2-chloro-5-[[5-(3,5-dichloro-4-fluoro-phenyl)-5-(trifluoromethyl)-4H-isoxazol-3-yl]amino]-N-[(4R)-3-oxo-2-(2,2,2-trifluoroethyl)isoxazolidin-4-yl]benzamide], the mortality at 2500 ppm in data set [1], in data set [2], in data set [3] and in data set [4] was no less than 75% in each case.
Consider `CCN1OC[C@@H](NC(=O)c2ccc(NC3=NOC(c4cc(Cl)cc(Cl)c4)(C(F)(F)F)C3)cc2Cl)C1=O` (stereo partly drawn) [I-71], for which the mortality at 2500 ppm in data set [3] is no less than 75%.
Consider `O=C(NC1CN(S(=O)(=O)C(F)F)C1)c1cc(NC2=NOC(c3cc(Cl)c(F)c(Cl)c3)(C(F)(F)F)C2)ccc1Cl` (stereo not drawn) [I-98, 2-chloro-5-[[5-(3,5-dichloro-4-fluoro-phenyl)-5-(trifluoromethyl)-4H-isoxazol-3-yl]amino]-N-[1-(difluoromethylsulfonyl)azetidin-3-yl]benzamide], for which the mortality at 2500 ppm in data set [1], in data set [2], in data set [3] and in data set [4] was no less than 75% throughout.
Turning to `CCN1OC[C@@H](NC(=O)c2cc(NC3=NOC(c4cc(Cl)cc(Cl)c4)(C(F)(F)F)C3)ccc2C)C1=O` (stereo partly drawn) [I-163], the mortality at 2500 ppm in data set [1], in data set [2], in data set [3] and in data set [4] (setting [5]) was no less than 75% each time.
Consider `O=C(Nc1ccc(F)cc1F)c1cc(NC2=NOC(c3cc(Cl)c(F)c(Cl)c3)(C(F)(F)F)C2)ccc1Cl` (stereo not drawn) [I-14], for which the mortality at 2500 ppm in data set [1], in data set [2], in data set [3] and in data set [4] (setting [5]) was no less than 75% each time.
`N#CC1(NC(=O)c2cc(NC3=NOC(c4cc(Cl)cc(Cl)c4)(C(F)(F)F)C3)ccc2OC(F)F)CC1` (stereo not drawn) [I-148]: the mortality at 2500 ppm in data set [1], in data set [3] and in data set [4] (setting [5]) was no less than 75% throughout.
As for `N#CC1(NC(=O)c2cc(NC3=NOC(c4cc(Cl)cc(Cl)c4)(C(F)(F)F)C3)ccc2OC(F)(F)F)CC1` (stereo not drawn) [I-150], the mortality at 2500 ppm in data set [1], in data set [2], in data set [3] and in data set [4] (setting [5]) was no less than 75% in each case.
With `O=C(NC1C[S+]([O-])C1)c1cc(NC2=NOC(c3cc(Cl)c(F)c(Cl)c3)(C(F)(F)F)C2)ccc1Cl` (stereo not drawn) [I-96, 2-chloro-5-[[5-(3,5-dichloro-4-fluoro-phenyl)-5-(trifluoromethyl)-4H-isoxazol-3-yl]amino]-N-(1-oxothietan-3-yl)benzamide], the mortality at 2500 ppm in data set [1], in data set [2], in data set [3] and in data set [4] was no less than 75% throughout.
`O=C(Nc1ccc(F)cc1F)c1cc(NC2=NOC(c3cc(Cl)cc(Cl)c3)(C(F)(F)F)C2)ccc1C(F)(F)F` (stereo not drawn) [I-158]: the mortality at 2500 ppm in data set [1], in data set [2], in data set [3] and in data set [4] (setting [5]) was no less than 75% in each case.
Turning to `CCOC(=O)N(C1=NOC(c2cc(Cl)cc(Cl)c2)(C(F)(F)F)C1)c1ccc(Cl)c(C(=O)N(C(=O)OCC)C2(C#N)CC2)c1` (stereo not drawn) [I-142, ethyl N-[4-chloro-3-[(1-cyanocyclopropyl)-ethoxycarbonyl-carbamoyl]-phenyl]-N-[5-(3,5-dichlorophenyl)-5-(trifluoromethyl)-4H-isoxazol-3-yl]carbamate], the mortality at 2500 ppm in data set [1], in data set [3] and in data set [4] (setting [5]) was no less than 75% in each case.
With `O=C(NCC(F)(F)F)c1cc(NC2=NOC(c3cc(Cl)cc(Cl)c3)(C(F)(F)F)C2)ccc1OC(F)F` (stereo not drawn) [I-178], the mortality at 2500 ppm in data set [1], in data set [2], in data set [3] and in data set [4] (setting [5]) was no less than 75% throughout.
On to `CCOC(=O)N(C1=NOC(c2cc(Cl)cc(Cl)c2)(C(F)(F)F)C1)c1ccc(Cl)c(C(=O)NC2(C#N)CC2)c1` (stereo not drawn) [I-28, ethyl N-[4-chloro-3-[(1-cyanocyclopropyl)carbamoyl]phenyl]-N-[5-(3,5-dichlorophenyl)-5-(trifluoromethyl)-4H-isoxazol-3-yl]carbamate], for which the mortality at 2500 ppm in data set [1], in data set [3] and in data set [4] (setting [5]) was no less than 75% throughout.
For the compound `O=C(Nc1ccc(F)cc1F)c1cc(NC2=NOC(c3ccc(F)c(C(F)(F)F)c3)(C(F)(F)F)C2)ccc1Cl` (stereo not drawn) [I-16], the mortality at 2500 ppm in data set [1], in data set [2], in data set [3] and in data set [4] (setting [5]) was no less than 75% in each case.
As to `CC(C)(C#N)NC(=O)c1cc(NC2=NOC(c3cc(Cl)c(F)c(Cl)c3)(C(F)(F)F)C2)ccc1Cl` (stereo not drawn) [I-75, 2-chloro-N-(1-cyano-1-methyl-ethyl)-5-[[5-(3,5-dichloro-4-fluoro-phenyl)-5-(trifluoromethyl)-4H-isoxazol-3-yl]amino]benzamide], the mortality at 2500 ppm in data set [1] and in data set [4] (setting [5]) was no less than 75% in each case.
Turning to `N#Cc1c(NC2=NOC(c3cc(Cl)cc(Cl)c3)(C(F)(F)F)C2)cccc1C(=O)NC1CC1` (stereo not drawn) [I-173], the mortality at 2500 ppm in data set [3] and in data set [4] (setting [5]) was no less than 75% each time.
For `COc1ccc(NC2=NOC(c3cc(Cl)cc(Cl)c3)(C(F)(F)F)C2)cc1C(=O)NC1CC1` (stereo not drawn) [I-170], the mortality at 2500 ppm in data set [1], in data set [3] and in data set [4] (setting [5]) was no less than 75% each time.
Take “2-chloro-5-[[5-(3,5-dichloro-4-fluoro-phenyl)-5-(trifluoromethyl)-4H-isoxazol-3-yl]amino]-N-[1-(trifluoromethylsulfonyl)azetidin-3-yl]benzamide [I-99]”: the “mortality (Egg and larval mortality)” value in data set [1] (setting [5]) and in data set [4] (setting [5]) was “at least 75%” each time. For the same compound, the “mortality (Aphid mortality)” value in data set [2] (2500 ppm, pipetted into aphid diet, 3 days, in comparison with untreated controls) is recorded as “at least 75%”.
Turning to `O=C(CC1CC1)Nc1c(F)ccc(NC(=O)c2cc(NC3=NOC(c4cc(Cl)cc(Cl)c4)(C(F)(F)F)C3)ccc2Cl)c1F` (stereo not drawn) [I-10], the mortality at 2500 ppm in data set [1], in data set [3] and in data set [4] (setting [5]) was no less than 75% each time.
On to `N#CC1(NC(=O)c2c(F)ccc(NC3=NOC(c4cc(Cl)cc(Cl)c4)(C(F)(F)F)C3)c2F)CC1` (stereo not drawn) [I-11, N-(1-cyanocyclopropyl)-3-[[5-(3,5-dichlorophenyl)-5-(trifluoromethyl)-4H-isoxazol-3-yl]amino]-2,6-difluoro-benzamide], for which the mortality at 2500 ppm in data set [3] and in data set [4] (setting [5]) was no less than 75% each time.
On to `N#CC1(NC(=O)c2cc(NC3=NOC(c4cc(Cl)cc(Cl)c4)(C(F)(F)F)C3)ccc2C(F)(F)F)CC1` (stereo not drawn) [I-149], for which the mortality at 2500 ppm in data set [1], in data set [3] and in data set [4] (setting [5]) was no less than 75% each time.
Turning to `Cc1ccc(NC2=NOC(c3cc(Cl)cc(Cl)c3)(C(F)(F)F)C2)cc1C(=O)NCC(F)(F)F` (stereo not drawn) [I-176], the mortality at 2500 ppm in data set [1], in data set [3] and in data set [4] (setting [5]) was no less than 75% throughout.
Consider `N#CC1(NC(=O)c2cc(N(CC3CC3)C3=NOC(c4cc(Cl)cc(Cl)c4)(C(F)(F)F)C3)ccc2Cl)CC1` (stereo not drawn) [I-25, 2-chloro-N-(1-cyanocyclopropyl)-5-[cyclopropylmethyl-[5-(3,5-dichlorophenyl)-5-(trifluoromethyl)-4H-isoxazol-3-yl]amino]benzamide], for which the mortality at 2500 ppm in data set [1], in data set [3] and in data set [4] (setting [5]) was no less than 75% throughout.
For `O=C(NCc1ccccn1)c1ccc(NC2=NOC(c3cc(Cl)cc(Cl)c3)(C(F)(F)F)C2)cc1Cl` (stereo not drawn) [I-70], the mortality at 2500 ppm in data set [1], in data set [3] and in data set [4] (setting [5]) was no less than 75% in each case.
In the case of `O=C(Nc1ccc(F)cc1F)c1cc(NC2=NOC(c3cc(Cl)cc(Cl)c3)(C(F)(F)F)C2)ccc1OC(F)(F)F` (stereo not drawn) [I-159], the mortality at 2500 ppm in data set [1], in data set [3] and in data set [4] (setting [5]) was no less than 75% throughout.
`COc1ccc(NC2=NOC(c3cc(Cl)cc(Cl)c3)(C(F)(F)F)C2)cc1C(=O)NC1(C#N)CC1` (stereo not drawn) [I-147]: the mortality at 2500 ppm in data set [1] and in data set [3] was no less than 75% throughout.
